Test results published in PubChem BioAssay (NCI).
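GI50: concentration for 50% inhibition of growth. TGI: concentration producing complete growth inhibition.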

How the values were obtained:
Test in all cases: growth of human tumour cells (NCI), 384-well format
A498 renal = test system: A498 renal
MALME-3M melanoma = test system: MALME-3M melanoma
HL-60(TB) leukemia = test system: HL-60(TB) leukemia
SK-OV-3 ovarian = test system: SK-OV-3 ovarian
ACHN renal = test system: ACHN renal
SK-MEL-5 melanoma = test system: SK-MEL-5 melanoma
OVCAR-5 ovarian = test system: OVCAR-5 ovarian
HCT-15 colon = test system: HCT-15 colon
SF-539 CNS = test system: SF-539 CNS
IGROV1 ovarian = test system: IGROV1 ovarian
EKVX NSCLC = test system: EKVX NSCLC
SNB-75 CNS = test system: SNB-75 CNS
NCI-H460 NSCLC = test system: NCI-H460 NSCLC
T-47D breast = test system: T-47D breast
HCT-116 colon = test system: HCT-116 colon
OVCAR-4 ovarian = test system: OVCAR-4 ovarian
BT-549 breast = test system: BT-549 breast
MOLT-4 leukemia = test system: MOLT-4 leukemia
SF-268 CNS = test system: SF-268 CNS
COLO 205 colon = test system: COLO 205 colon
HOP-62 NSCLC = test system: HOP-62 NSCLC
OVCAR-3 ovarian = test system: OVCAR-3 ovarian
SF-295 CNS = test system: SF-295 CNS
TK-10 renal = test system: TK-10 renal
SK-MEL-28 melanoma = test system: SK-MEL-28 melanoma
RXF 393 renal = test system: RXF 393 renal
OVCAR-8 ovarian = test system: OVCAR-8 ovarian
RPMI-8226 leukemia = test system: RPMI-8226 leukemia
DU-145 prostate = test system: DU-145 prostate
NCI-H522 lung = test system: NCI-H522 lung
SN12C renal = test system: SN12C renal
HCC-2998 colon = test system: HCC-2998 colon
M14 melanoma = test system: M14 melanoma
NCI-H322M lung = test system: NCI-H322M lung
NCI-H23 lung = test system: NCI-H23 lung
KM12 colon = test system: KM12 colon
CAKI-1 renal = test system: CAKI-1 renal
PC-3 prostate = test system: PC-3 prostate
LOX IMVI melanoma = test system: LOX IMVI melanoma
MDA-MB-231 breast = test system: MDA-MB-231 breast
SR leukemia = test system: SR leukemia
MCF7 breast = test system: MCF7 breast
SNB-19 CNS = test system: SNB-19 CNS
UACC-257 melanoma = test system: UACC-257 melanoma
MDA-MB-468 breast = test system: MDA-MB-468 breast
HS 578T breast = test system: HS 578T breast
HT29 colon = test system: HT29 colon
NCI-H226 lung = test system: NCI-H226 lung
NCI/ADR-RES ovarian = test system: NCI/ADR-RES ovarian
HOP-92 NSCLC = test system: HOP-92 NSCLC
A549 NSCLC = test system: A549 NSCLC
U251 glioblastoma = test system: U251 glioblastoma

`CNCCn1c(=O)c2cc(OC)c(OC)cc2c2cnc3cc4c(cc3c21)OCO4` showed a GI50 (A498 renal) of less than 10 nM, a TGI (A498 renal) of 20.9 nM and a GI50 (MALME-3M melanoma) of 25.5 nM. The TGI (MALME-3M melanoma) was 1810 nM, the GI50 (HL-60(TB) leukemia) was less than 10 nM and the TGI (HL-60(TB) leukemia) was less than 10 nM. It also gave a GI50 (SK-OV-3 ovarian) of less than 10 nM, a TGI (SK-OV-3 ovarian) of 17.7 nM and a GI50 (ACHN renal) of less than 10 nM. The TGI (ACHN renal) was less than 10 nM, the GI50 (SK-MEL-5 melanoma) was less than 10 nM and the TGI (SK-MEL-5 melanoma) was 14.8 nM. It also gave a GI50 (OVCAR-5 ovarian) of 10.6 nM, a TGI (OVCAR-5 ovarian) of 29.1 nM and a GI50 (HCT-15 colon) of less than 10 nM. The TGI (HCT-15 colon) was 25.8 nM, the GI50 (SF-539 CNS) was less than 10 nM and the TGI (SF-539 CNS) was 12.3 nM. For the same compound, the GI50 (IGROV1 ovarian) was 15.8 nM, the TGI (IGROV1 ovarian) was 66.7 nM and the GI50 (EKVX NSCLC) was 21.9 nM. For the same compound, the TGI (EKVX NSCLC) was 51.6 nM, the GI50 (SNB-75 CNS) was less than 10 nM and the TGI (SNB-75 CNS) was 23.3 nM. It also gave a GI50 (NCI-H460 NSCLC) of less than 10 nM, a TGI (NCI-H460 NSCLC) of less than 10 nM and a GI50 (T-47D breast) of less than 10 nM. For the same compound, the TGI (T-47D breast) was 242 nM, the GI50 (HCT-116 colon) was less than 10 nM and the TGI (HCT-116 colon) was 19.2 nM. The GI50 (OVCAR-4 ovarian) was 21.7 nM, the TGI (OVCAR-4 ovarian) was 42 nM and the GI50 (BT-549 breast) was less than 10 nM. The TGI (BT-549 breast) was 20.4 nM, the GI50 (MOLT-4 leukemia) was less than 10 nM and the TGI (MOLT-4 leukemia) was less than 10 nM. It also gave a GI50 (SF-268 CNS) of less than 10 nM, a TGI (SF-268 CNS) of 17.2 nM and a GI50 (COLO 205 colon) of less than 10 nM. It also gave a TGI (COLO 205 colon) of 1330 nM, a GI50 (HOP-62 NSCLC) of less than 10 nM and a TGI (HOP-62 NSCLC) of less than 10 nM. It also gave a GI50 (OVCAR-3 ovarian) of less than 10 nM, a TGI (OVCAR-3 ovarian) of 14.1 nM and a GI50 (SF-295 CNS) of less than 10 nM. For the same compound, the TGI (SF-295 CNS) was less than 10 nM, the GI50 (TK-10 renal) was 13.8 nM and the TGI (TK-10 renal) was 58.4 nM. For the same compound, the GI50 (SK-MEL-28 melanoma) was 28.8 nM, the TGI (SK-MEL-28 melanoma) was 1830 nM and the GI50 (RXF 393 renal) was 13.7 nM. The TGI (RXF 393 renal) was 43.1 nM, the GI50 (OVCAR-8 ovarian) was less than 10 nM and the TGI (OVCAR-8 ovarian) was 33.8 nM. The GI50 (RPMI-8226 leukemia) was less than 10 nM, the TGI (RPMI-8226 leukemia) was less than 10 nM and the GI50 (DU-145 prostate) was less than 10 nM. The TGI (DU-145 prostate) was less than 10 nM, the GI50 (NCI-H522 lung) was less than 10 nM and the TGI (NCI-H522 lung) was 23.3 nM. It also gave a GI50 (SN12C renal) of less than 10 nM, a TGI (SN12C renal) of less than 10 nM and a GI50 (HCC-2998 colon) of 12.4 nM. It also gave a TGI (HCC-2998 colon) of 32.4 nM, a GI50 (M14 melanoma) of less than 10 nM and a TGI (M14 melanoma) of less than 10 nM. For the same compound, the GI50 (NCI-H322M lung) was 15.6 nM, the TGI (NCI-H322M lung) was 41.1 nM and the GI50 (NCI-H23 lung) was less than 10 nM. The TGI (NCI-H23 lung) was 16.2 nM, the GI50 (KM12 colon) was 10.8 nM and the TGI (KM12 colon) was 43.2 nM. It also gave a GI50 (CAKI-1 renal) of less than 10 nM, a TGI (CAKI-1 renal) of 1490 nM and a GI50 (PC-3 prostate) of 22.1 nM. It also gave a TGI (PC-3 prostate) of 1340 nM, a GI50 (LOX IMVI melanoma) of less than 10 nM and a TGI (LOX IMVI melanoma) of 12 nM. The GI50 (MDA-MB-231 breast) was 35.8 nM, the TGI (MDA-MB-231 breast) was 139 nM and the GI50 (SR leukemia) was less than 10 nM. It also gave a TGI (SR leukemia) of less than 10 nM, a GI50 (MCF7 breast) of less than 10 nM and a TGI (MCF7 breast) of 158 nM. The GI50 (SNB-19 CNS) was less than 10 nM, the TGI (SNB-19 CNS) was 14.1 nM and the GI50 (UACC-257 melanoma) was 22.8 nM. For the same compound, the TGI (UACC-257 melanoma) was 1310 nM, the GI50 (MDA-MB-468 breast) was less than 10 nM and the TGI (MDA-MB-468 breast) was less than 10 nM. The GI50 (HS 578T breast) was 33.5 nM, the TGI (HS 578T breast) was 1810 nM and the GI50 (HT29 colon) was less than 10 nM. It also gave a TGI (HT29 colon) of 20.5 nM, a GI50 (NCI-H226 lung) of 12.7 nM and a TGI (NCI-H226 lung) of 756 nM. It also gave a GI50 (NCI/ADR-RES ovarian) of less than 10 nM, a TGI (NCI/ADR-RES ovarian) of 42.9 nM and a GI50 (HOP-92 NSCLC) of 14.1 nM. It also gave a TGI (HOP-92 NSCLC) of 1330 nM, a GI50 (A549 NSCLC) of less than 10 nM and a TGI (A549 NSCLC) of 1080 nM. It also gave a GI50 (U251 glioblastoma) of less than 10 nM and a TGI (U251 glioblastoma) of 12.3 nM.
